Some results are limits rather than exact numbers.

From patent US11696913B2, “Prolonged ectoparasite-controlling agent for animal” (MITSUI CHEMICALS AGRO, INC., priority 2017, dated 2023) come the findings set out here.

Assay [1] relates to Ctenocephalides felis. Nature of the assay: Ctenocephalides felis in-vitro feeding test with fleas (CTECFE oral). The note with it: 48 hours, read-out: insecticidal feeding activity; for pest or weed control at 4 ppm: dose 4 ppm in citrated cattle blood; for pest or weed control at 0.16 ppm: dose 0.16 ppm in citrated cattle blood; for pest or weed control at 0.8 ppm: dose 0.8 ppm in citrated cattle blood; for pest or weed control at 0.0064 ppm: dose 0.0064 ppm in citrated cattle blood; for pest or weed control at 0.032 ppm: dose 0.032 ppm in citrated cattle blood. In outline: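 About 20 unfed adult cat fleas fed through parafilm on citrated cattle blood containing test substance (DMSO solution diluted in blood), held at about 37° C. Kill rate scored after 48 hours, 100% meaning all fleas dead.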

The subject of assay [2] is Ctenocephalides felis. Briefly: In vitro contact test with fleas. The note with it: read-out: insecticidal activity; for pest or weed control at 0.2 µg/cm2, 0.2 µg/cm2: dose 0.2 μg/cm^2, dead or moribund fleas after 48 h; for pest or weed control at 1 µg/cm2, 1 µg/cm2: dose 1 μg/cm^2, dead or moribund fleas after 48 h; for pest or weed control at 0.04 µg/cm2, 0.04 µg/cm2: dose 0.04 μg/cm^2, dead or moribund fleas after 48 h. The essentials:
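Adult male and female cat fleas (5-10 per tube) placed in glass tubes coated with compound from acetone solution (900 ppm gives 5 μg/cm^2), kept at room temperature and ambient humidity. After 48 h, motionless or uncoordinated fleas scored dead or moribund; activity expressed as % dead or moribund.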

Assay [3] has as its system Spodoptera litura. Nature of the assay: Insecticidal testing against common cutworm. The assay is classed as in vivo. The note with it: foliar, 144 h, concentration 100 ppm, cabbage leaf dip, second-stage larvae, after 6 days, read-out: pesticidal rate. The text has this:
Insecticidal Testing Against Common Cutworm (Spodoptera litura)

Assay [4] has as its system Rhipicephalus (Boophilus) microplus. Nature of the assay: In vitro injection test with Rhipicephalus (Boophilus) microplus (BOOPMI Inj). The note with it: 168 h, laid fertile eggs after 7 days, read-out: acaricidal activity; for pest or weed control at 0.0008 mg: dose 0.8 μg/animal injected; for pest or weed control at 0.00016 mg: dose 0.16 μg/animal injected. In outline:
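Test substance in DMSO; 1 μl injected into abdomen of each of 5 engorged adult female ticks, then held at 28° C., 85% rel. hum. Activity scored after 7 days from laying of fertile eggs: 100% = no eggs or all infertile, 0% = all eggs fertile.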

In assay [5] the test system is Laodelphax striatellus. Briefly: Insecticidal testing against small brown planthopper. In kind it is in vivo. The note with it: 144 h, concentration 100 ppm, sprayed rice seedlings, after 6 days, read-out: pesticidal rate. On the procedure:
Insecticidal Testing Against Small Brown Planthopper (Laodelphax striatellus)
An additional test was carried out with 10 small brown planthoppers by preparing an acetone solution of the testing compound diluted to a predetermined concentration, spraying the solution onto rice seedlings and air drying the rice seedlings. The medicament was all used as received. The rice seedlings were placed in a constant-temperature room at 25° C., and the survival rate was investigated after 6 days. The test was carried out by means of one group of 10 pests.

In assay [6] the test system is Plutella xylostella. Nature of the assay: Insecticidal testing against diamondback moth. The note with it: foliar, 144 h, concentration 100 ppm, cabbage leaf dip, third-stage larvae, after 6 days, read-out: pesticidal rate. The assay is classed as in vivo. The text has this: Insecticidal Testing Against Diamondback Moth (Plutella xylostella)

As to `CC(C)c1ccc(C(=O)N(C)c2cccc(C(=O)Nc3c(I)cc(C(F)(C(F)(F)F)C(F)(F)F)cc3C(F)(F)F)c2F)cc1` [Compound 47], the pest or weed control at 4 ppm in assay [1] was determined as 95%. Further, the pest or weed control at 0.2 µg/cm2, 0.2 µg/cm2 in assay [2] worked out at 95%. Besides, in assay [2], the pest or weed control at 1 µg/cm2, 1 µg/cm2 worked out at 95%. The pest or weed control at 100 ppm in assay [3], in assay [5] and in assay [6] was ≥ 70% throughout. In addition, in assay [4], the pest or weed control at 0.0008 mg was 100%.

As to `CN(C(=O)c1ccc(C(N)=O)cc1)c1cccc(C(=O)Nc2c(I)cc(C(F)(C(F)(F)F)C(F)(F)F)cc2C(F)(F)F)c1F` [Compound 48], in assay [1], the pest or weed control at 0.16 ppm came out at 95%, the pest or weed control at 0.8 ppm was 95% and the pest or weed control at 4 ppm amounted to 95%. Besides, the pest or weed control at 1 µg/cm2, 1 µg/cm2 in assay [2] turned out to be 95%. For the same compound, the pest or weed control at 100 ppm in assay [3] was ≥ 70%. Further, in assay [4], the pest or weed control at 0.00016 mg was determined as 100% and the pest or weed control at 0.0008 mg was determined as 100%. The pest or weed control at 100 ppm in assay [6] is ≥ 70%.

`CN(C(=O)c1ccc(S(C)(=O)=O)cc1)c1cccc(C(=O)Nc2c(I)cc(C(F)(C(F)(F)F)C(F)(F)F)cc2C(F)(F)F)c1F` [Compound 49]: in assay [1], the pest or weed control at 0.0064 ppm came to 95%, the pest or weed control at 0.032 ppm was determined as 95%, the pest or weed control at 0.16 ppm was determined as 95% and the pest or weed control at 0.8 ppm was 95%. In addition, the pest or weed control at 4 ppm in assay [1] was determined as 95%. Moreover, in assay [2], the pest or weed control at 0.04 µg/cm2, 0.04 µg/cm2 was determined as 95%; the pest or weed control at 0.2 µg/cm2, 0.2 µg/cm2 was 95%; the pest or weed control at 1 µg/cm2, 1 µg/cm2 stood at 95%. Also, the pest or weed control at 100 ppm in assay [3] is ≥ 70%. Moreover, in assay [4], the pest or weed control at 0.00016 mg was 100% and the pest or weed control at 0.0008 mg was found to be 100%. Moreover, the pest or weed control at 100 ppm in assay [5] was ≥ 70%. In addition, the pest or weed control at 100 ppm in assay [6] is ≥ 70%.

Take `CN(C(=O)c1ccc2c(c1)CCCC2)c1cccc(C(=O)Nc2c(I)cc(C(F)(C(F)(F)F)C(F)(F)F)cc2C(F)(F)F)c1F` [Compound 52]: in assay [1], the pest or weed control at 4 ppm was determined as 95%. The pest or weed control at 1 µg/cm2, 1 µg/cm2 in assay [2] turned out to be 95%. Moreover, the pest or weed control at 100 ppm in assay [3] and in assay [6] was ≥ 70% each time. Also, the pest or weed control at 0.0008 mg in assay [4] came out at 100%.

Regarding `CN(C(=O)c1ccc2c(c1)OCO2)c1cccc(C(=O)Nc2c(I)cc(C(F)(C(F)(F)F)C(F)(F)F)cc2C(F)(F)F)c1F` [Compound 55], the pest or weed control at 4 ppm in assay [1] was 95%. The pest or weed control at 0.2 µg/cm2, 0.2 µg/cm2 in assay [2] was 95%. Further, the pest or weed control at 1 µg/cm2, 1 µg/cm2 in assay [2] amounted to 95%. Moreover, the pest or weed control at 100 ppm in assay [3] and in assay [6] was ≥ 70% in each case.

Regarding `CN(C(=O)c1ccc(OC(F)(F)F)cc1)c1cccc(C(=O)Nc2c(I)cc(C(F)(C(F)(F)F)C(F)(F)F)cc2C(F)(F)F)c1F` [Compound 61], in assay [1], the pest or weed control at 0.8 ppm was 95% and the pest or weed control at 4 ppm came out at 95%. For the same compound, in assay [2], the pest or weed control at 0.2 µg/cm2, 0.2 µg/cm2 amounted to 95% and the pest or weed control at 1 µg/cm2, 1 µg/cm2 was determined as 95%. In assay [3], the pest or weed control at 100 ppm is ≥ 70%. In addition, in assay [4], the pest or weed control at 0.00016 mg is 100% and the pest or weed control at 0.0008 mg stood at 100%. Further, in assay [5], the pest or weed control at 100 ppm is ≥ 70%. Besides, in assay [6], the pest or weed control at 100 ppm is ≥ 70%.

Consider `CN(C(=O)c1ccc(F)cc1)c1cc(C(=O)Nc2c(Cl)cc(C(F)(C(F)(F)F)C(F)(F)F)cc2C(F)(F)F)ccc1F` [Compound 83], for which, in assay [1], the pest or weed control at 0.032 ppm came to 95%, the pest or weed control at 0.16 ppm was determined as 95%, the pest or weed control at 0.8 ppm came to 95% and the pest or weed control at 4 ppm was determined as 95%. Further, in assay [2], the pest or weed control at 0.04 µg/cm2, 0.04 µg/cm2 stood at 95%; the pest or weed control at 0.2 µg/cm2, 0.2 µg/cm2 turned out to be 95%; the pest or weed control at 1 µg/cm2, 1 µg/cm2 stood at 95%. Moreover, in assay [3], the pest or weed control at 100 ppm was ≥ 70%. Further, in assay [4], the pest or weed control at 0.00016 mg amounted to 100% and the pest or weed control at 0.0008 mg stood at 100%. Further, the pest or weed control at 100 ppm in assay [5] was ≥ 70%. Moreover, the pest or weed control at 100 ppm in assay [6] is ≥ 70%.

Regarding `CN(C(=O)c1ccc(C(F)(F)F)nc1C(F)(F)F)c1cccc(C(=O)Nc2c(I)cc(C(F)(C(F)(F)F)C(F)(F)F)cc2C(F)(F)F)c1F` [Compound 111], in assay [1], the pest or weed control at 0.0064 ppm stood at 95%, the pest or weed control at 0.032 ppm turned out to be 95%, the pest or weed control at 0.16 ppm was 95% and the pest or weed control at 0.8 ppm was determined as 95%. In assay [1], the pest or weed control at 4 ppm was determined as 95%. In assay [2], the pest or weed control at 0.04 µg/cm2, 0.04 µg/cm2 came out at 95%; the pest or weed control at 0.2 µg/cm2, 0.2 µg/cm2 came to 95%; the pest or weed control at 1 µg/cm2, 1 µg/cm2 is 95%. In addition, the pest or weed control at 100 ppm in assay [3] is ≥ 70%. In addition, in assay [4], the pest or weed control at 0.00016 mg came to 100% and the pest or weed control at 0.0008 mg was found to be 100%. Also, the pest or weed control at 100 ppm in assay [6] was ≥ 70%.

As to `O=C(Nc1cccc(C(=O)Nc2c(I)cc(C(F)(C(F)(F)F)C(F)(F)F)cc2C(F)(F)F)c1F)c1ccc(C(F)(F)F)nc1C(F)(F)F` [Compound 112], in assay [1], the pest or weed control at 0.16 ppm was 95%, the pest or weed control at 0.8 ppm came to 95% and the pest or weed control at 4 ppm worked out at 95%. The pest or weed control at 100 ppm in assay [3] is ≥ 70%. The pest or weed control at 0.0008 mg in assay [4] was 100%. For the same compound, the pest or weed control at 100 ppm in assay [6] is ≥ 70%.

Turning to `CN(C(=O)c1cnc(C(F)(F)F)nc1)c1cccc(C(=O)Nc2c(I)cc(C(F)(C(F)(F)F)C(F)(F)F)cc2C(F)(F)F)c1F` [Compound 113], in assay [1], the pest or weed control at 0.032 ppm is 95%, the pest or weed control at 0.16 ppm amounted to 95%, the pest or weed control at 0.8 ppm amounted to 95% and the pest or weed control at 4 ppm worked out at 95%. For the same compound, the pest or weed control at 100 ppm in assay [3] was ≥ 70%. Also, the pest or weed control at 32 ng in assay [4] (dose 0.032 μg/animal injected) came to 100%. For the same compound, in assay [4], the pest or weed control at 0.00016 mg came to 100% and the pest or weed control at 0.0008 mg amounted to 100%. Further, the pest or weed control at 100 ppm in assay [5] was ≥ 70%. In assay [6], the pest or weed control at 100 ppm was ≥ 70%.

On to `O=C(Nc1cccc(C(=O)Nc2c(I)cc(C(F)(C(F)(F)F)C(F)(F)F)cc2C(F)(F)F)c1F)c1cnc(C(F)(F)F)nc1` [Compound 114], for which, in assay [1], the pest or weed control at 0.16 ppm came to 95%, the pest or weed control at 0.8 ppm was determined as 95% and the pest or weed control at 4 ppm was 95%. Also, the pest or weed control at 100 ppm in assay [3] is ≥ 70%. Moreover, the pest or weed control at 0.0008 mg in assay [4] is 100%. For the same compound, in assay [6], the pest or weed control at 100 ppm is ≥ 70%.
